Legend:
HORMU = assay: Post-emergence herbicidal action against HORMU; assay type: in vivo, Hordeum murinum; conditions: application rate 80 g/ha
Outline: (§1)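 Visual scoring, about three weeks after a post-emergence spray, compares treated plants with untreated controls on a 0–100% scale. Spraying used WP or EC preparations with 0.5% additive at 600 l/ha on one-leaf-stage plants grown in sandy loam.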

STEME = assay: Post-emergence herbicidal action against STEME; assay type: in vivo, Stellaria media; conditions: application rate 80 g/ha, rated visually about 3 weeks after treatment
Outline: as §1

ABUTH = assay: Post-emergence herbicidal action against ABUTH; assay type: in vivo, Abutilon theophrasti; conditions: application rate 80 g/ha, rated visually about 3 weeks after treatment
Outline: as §1

POLCO = assay: Post-emergence herbicidal action against POLCO; assay type: in vivo, Polygonum convolvulus; conditions: application rate 80 g/ha, rated visually about 3 weeks after treatment
Outline: as §1

VERPE = assay: Post-emergence herbicidal action against VERPE; assay type: in vivo, Veronica persica; conditions: application rate 80 g/ha
Outline: as §1

PHBPU = assay: Post-emergence herbicidal action against PHBPU; assay type: in vivo, Pharbitis purpurea; conditions: application rate 80 g/ha, rated visually about 3 weeks after treatment
Outline: as §1

VIOTR = assay: Post-emergence herbicidal action against VIOTR; assay type: in vivo, Viola tricolor; conditions: application rate 80 g/ha, rated visually about 3 weeks after treatment
Method: [table] 2. Post-emergence herbicidal action against harmful plants and crop plant compatibility Seeds of monocotyledonous and dicotyledonous weeds and crop plants are placed in sandy loam in plastic or wood-fibre pots, covered with soil and cultivated in a greenhouse under controlled growth conditions. 2 to 3 weeks after sowing, the test plants are treated at the one-leaf stage. The compounds of the invention, formulated in the form of wettable powders (WP) or as emulsion concentrates (EC), are then sprayed onto the green parts of the plants as aqueous suspension or emulsion with addition of 0.5% additive at a water application rate of 600 l/ha (converted). After the test plants have been kept in the greenhouse under optimum growth conditions for about 3 weeks, the activity of the preparations is rated visually in comparison to untreated controls. For example, 100% activity=the plants have died, 0% activity=like control plants.

LOLRI = assay: Post-emergence herbicidal action against LOLRI; assay type: in vivo, Lolium rigidum; conditions: application rate 80 g/ha, rated visually after about 3 weeks
Outline: as §1

ECHCG = assay: Post-emergence herbicidal action against ECHCG; assay type: in vivo, Echinochloa crus-galli; conditions: application rate 80 g/ha, rated visually after about 3 weeks
Outline: as §1

AVEFA = assay: Post-emergence herbicidal action against AVEFA; assay type: in vivo, Avena fatua; conditions: application rate 80 g/ha, rated visually after about 3 weeks
Outline: as §1

SETVI = assay: Post-emergence herbicidal action against SETVI; assay type: in vivo, Setaria viridis; conditions: application rate 80 g/ha, rated visually after about 3 weeks
Outline: as §1

AMARE = assay: Post-emergence herbicidal action against AMARE; assay type: in vivo, Amaranthus retroflexus; conditions: application rate 80 g/ha, rated visually about 3 weeks after treatment
Outline: as §1

ALOMY = assay: Post-emergence herbicidal action against ALOMY; assay type: in vivo, Alopecurus myosuroides; conditions: application rate 80 g/ha, rated visually after about 3 weeks
Outline: as §1

N#Cc1cccc(C2=NOC(C(=O)NC3C=CC(C(=O)OCCCl)C3)(C(F)(F)F)C2)c1 (mixture of isomers) [Example I-088]
Herbicidal action against [%] HORMU (HORMU): 90%
Herbicidal action against [%] STEME (STEME): 90%
Herbicidal action against [%] ABUTH (ABUTH): 90%
Herbicidal action against [%] POLCO (POLCO): 90%
Herbicidal action against [%] VERPE (VERPE): 90%
Herbicidal action against [%] PHBPU (PHBPU): 90%
Herbicidal action against [%] VIOTR (VIOTR): 90%
Herbicidal action against [%] LOLRI (LOLRI): 100%
Herbicidal action against [%] ECHCG (ECHCG): 90%
Herbicidal action against [%] AVEFA (AVEFA): 100%
Herbicidal action against [%] SETVI (SETVI): 90%
Herbicidal action against [%] AMARE (AMARE): 90%

N#Cc1cc(F)cc(C2=NOC(C(=O)NC3C=CC(C(=O)O)C3)(C(F)(F)F)C2)c1 (mixture of isomers) [Example I-090]
Herbicidal action against [%] HORMU (HORMU): 100%
Herbicidal action against [%] STEME (STEME): 90%
Herbicidal action against [%] ABUTH (ABUTH): 90%
Herbicidal action against [%] POLCO (POLCO): 90%
Herbicidal action against [%] VERPE (VERPE): 90%
Herbicidal action against [%] PHBPU (PHBPU): 90%
Herbicidal action against [%] VIOTR (VIOTR): 90%
Herbicidal action against [%] ALOMY (ALOMY): 100%
Herbicidal action against [%] LOLRI (LOLRI): 100%
Herbicidal action against [%] ECHCG (ECHCG): 80%
Herbicidal action against [%] AVEFA (AVEFA): 100%
Herbicidal action against [%] SETVI (SETVI): 90%
Herbicidal action against [%] AMARE (AMARE): 90%

CC(C)(C#N)NC(=O)C1C=CC(NC(=O)C2(C(F)(F)F)CC(c3cc(F)cc(F)c3)=NO2)C1 (mixture of isomers) [II-34]
Herbicidal action against [%] HORMU (HORMU): 80%
Herbicidal action against [%] STEME (STEME): 90%
Herbicidal action against [%] ABUTH (ABUTH): 80%
Herbicidal action against [%] POLCO (POLCO): 90%
Herbicidal action against [%] VERPE (VERPE): 90%
Herbicidal action against [%] PHBPU (PHBPU): 90%
Herbicidal action against [%] VIOTR (VIOTR): 90%
Herbicidal action against [%] ALOMY (ALOMY): 90%
Herbicidal action against [%] LOLRI (LOLRI): 90%
Herbicidal action against [%] ECHCG (ECHCG): 80%
Herbicidal action against [%] AVEFA (AVEFA): 100%
Herbicidal action against [%] SETVI (SETVI): 80%
Herbicidal action against [%] AMARE (AMARE): 90%

CC(C)C(C#N)NC(=O)C1C=CC(NC(=O)C2(C(F)(F)F)CC(c3cc(F)cc(F)c3)=NO2)C1 (mixture of isomers) [II-35]
Herbicidal action against [%] HORMU (HORMU): 80%
Herbicidal action against [%] STEME (STEME): 90%
Herbicidal action against [%] ABUTH (ABUTH): 80%
Herbicidal action against [%] POLCO (POLCO): 90%
Herbicidal action against [%] VERPE (VERPE): 90%
Herbicidal action against [%] PHBPU (PHBPU): 90%
Herbicidal action against [%] VIOTR (VIOTR): 90%
Herbicidal action against [%] ALOMY (ALOMY): 90%
Herbicidal action against [%] LOLRI (LOLRI): 90%
Herbicidal action against [%] AVEFA (AVEFA): 100%
Herbicidal action against [%] SETVI (SETVI): 80%
Herbicidal action against [%] AMARE (AMARE): 90%

N#Cc1cc(F)cc(C2=NOC(C(=O)N[C@H]3C=C[C@@H](C(=O)OCC(F)(F)F)C3)(C(F)(F)F)C2)c1 (stereo partly drawn) [Example I-096]
Herbicidal action against [%] HORMU (HORMU): 100%
Herbicidal action against [%] STEME (STEME): 90%
Herbicidal action against [%] ABUTH (ABUTH): 90%
Herbicidal action against [%] POLCO (POLCO): 90%
Herbicidal action against [%] VERPE (VERPE): 90%
Herbicidal action against [%] PHBPU (PHBPU): 90%
Herbicidal action against [%] VIOTR (VIOTR): 90%
Herbicidal action against [%] ALOMY (ALOMY): 100%
Herbicidal action against [%] LOLRI (LOLRI): 100%
Herbicidal action against [%] ECHCG (ECHCG): 80%
Herbicidal action against [%] AVEFA (AVEFA): 100%
Herbicidal action against [%] SETVI (SETVI): 80%
Herbicidal action against [%] AMARE (AMARE): 90%

CC1(C(=O)N[C@H]2CC=C(C(=O)OCc3ccccc3)C2)CC(c2cc(F)cc(F)c2)=NO1 (stereo partly drawn) [III-12]
Herbicidal action against [%] HORMU (HORMU): 100%
Herbicidal action against [%] STEME (STEME): 80%
Herbicidal action against [%] ABUTH (ABUTH): 90%
Herbicidal action against [%] POLCO (POLCO): 90%
Herbicidal action against [%] VERPE (VERPE): 90%
Herbicidal action against [%] PHBPU (PHBPU): 90%
Herbicidal action against [%] VIOTR (VIOTR): 90%
Herbicidal action against [%] ALOMY (ALOMY): 100%
Herbicidal action against [%] LOLRI (LOLRI): 100%
Herbicidal action against [%] AVEFA (AVEFA): 100%
Herbicidal action against [%] SETVI (SETVI): 80%
Herbicidal action against [%] AMARE (AMARE): 90%

C=CC1(C(=O)N[C@H]2CC=C(C(=O)OCCOCC)C2)CC(c2cc(F)cc(F)c2)=NO1 (stereo partly drawn) [III-16]
Herbicidal action against [%] HORMU (HORMU): 90%
Herbicidal action against [%] STEME (STEME): 80%
Herbicidal action against [%] ABUTH (ABUTH): 80%
Herbicidal action against [%] POLCO (POLCO): 90%
Herbicidal action against [%] VERPE (VERPE): 80%
Herbicidal action against [%] PHBPU (PHBPU): 90%
Herbicidal action against [%] VIOTR (VIOTR): 90%
Herbicidal action against [%] LOLRI (LOLRI): 100%
Herbicidal action against [%] ECHCG (ECHCG): 90%
Herbicidal action against [%] AVEFA (AVEFA): 100%
Herbicidal action against [%] SETVI (SETVI): 80%
Herbicidal action against [%] AMARE (AMARE): 90%
